The results in this text go back to US7342021B2, “Phosphodiesterase 4 inhibitors” (Memory Pharmaceuticals Corp., priority 2001, dated 2008).

Structures can show the parent of a compound that is named as a salt.

A short description of data set [1]: Solubility of the mesylate salt in H2O. The data set is classed as physicochemical. As to the method: To obtain the methansulphonate salt (mesylate salt), 4 ml of 0.1N CH3SO3H in EtOAc was added to a solution of 145 mg (0.4 mmol) 6-cyclopropylamino-9-(2-fluorobenzyl)-2-trifluoromethylpurine in EtOAc. Then, 1 ml of hexane was added to a warm solution and the resultant mixture was allowed to crystallize (within a refrigerator). The solid was collected to give 148 mg of the mesylate salt. […] M.p. 167.5-169.0 C; m.p. 114-118 C for free base.

The test system of data set [2] is rats. The data set can be described thus: Radial arm maze task in rats, an in vivo test for learning and memory. Details: species or system rat. Particulars: MK-801 0.1 mg/kg i.p., compared to control, p<0.01. On the procedure: The test was performed as previously described (Zhang, H.-T., Crissman, A. M., Dorairaj, N. R., Chandler, L. J., and O'Donnell, J. M., Neuropsychopharmacology, 2000, 23, 198-204.). Five days after initial housing, rats (male Spraque-Dawley (Harlan) weighing 250 to 350 g) were placed in the eight-arm radial maze (each arm was 60×10×12 cm high; the maze was elevated 70 cm above the floor) for acclimation for two days. Rats were then placed individually in the center of the maze for 5 minutes with food pellets placed close to the food wells, and then, the next day, in the wells at the end of the arms; 2 sessions a day were conducted. Next, four randomly selected arms were then baited with one pellet of food each. The rat was restricted to the center platform (26 cm in diameter) for 15 seconds and then allowed to move freely throughout the maze until it collected all pellets of food or 10 minutes passed, whichever came first. Four parameters were recorded: 1) working memory errors, i.e., entries into baited arms that had already been visited during the same trial; 2) reference memory errors, i.e., entries into unbaited arms; 3) total arm entries; and 4) the test duration (seconds), i.e., the time spent in the collection of all the pellets in the maze. […]
(§1) All data were analyzed by analyses of variance (ANOVA); individual comparisons were made using Kewman-Keuls tests. […]

Data set [3] has as its system rats. Kind of data set: Passive avoidance in rats, an in vivo test for learning and memory. Details: species or system rat. Particulars: MK-801 0.1 mg/kg pretreatment, retention test 24 hours after electric shock, compared to the vehicle, p<0.001. As to the method:
The test was performed as previously described (Zhang, H.-T., Crissman, A. M., Dorairaj, N. R., Chandler, L. J., and O'Donnell, J. M., Neuropsychopharmacology, 2000, 23, 198-204.). The apparatus (Model E10-16SC, Coulbourn Instruments, Allentown, Pa.) consisted of a two-compartment chamber with an illuminated compartment connected to a darkened compartment by a guillotine door. The floor of the darkened compartment consisted of stainless steel rods through which an electric foot-shock could be delivered from a constant current source. All experimental groups were first habituated to the apparatus the day before the start of the experiment. During the training, the rat (Male Spraque-Dawley (Harlan) weighing 250 to 350 g) was placed in the illuminated compartment facing away from the closed guillotine door for 1 minute before the door was raised. The latency for entering the darkened compartment was recorded. After the rat entered the darkened compartment, the door was closed and a 0.5 mA electric shock was administered for 3 seconds. […] The latency for entering the darkened compartment was recorded for up to 180 seconds, at which time the trial was terminated.
as §1

`Fc1ccccc1Cn1cnc2c(NC3CC3)nc(C(F)(F)F)nc21` [Example 4 mesylate salt, 6-cyclopropylamino-9-(2-fluorobenzyl)-2-trifluoromethylpurine]: the “solubility in H2O” value in data set [1] was “relatively insoluble”.
For `C[C@]12N[C@H](Cc3ccccc31)c1ccccc12` [MK-801], in data set [2], the “reference memory errors (frequency)” value is listed as “increased the frequencies” and the “working memory errors (frequency)” value was “increased the frequencies”. Also, the “latency for entering the darkened compartment” value in data set [3] is recorded as “markedly reduced this latency”.
